These results are taken from patent US9980943B2, “Methods of treating muscular dystrophy” (BOARD OF REGENTS OF THE NEVADA SYSTEM OF HIGHER EDUCATION, …, priority 2013, dated 2018).

Type in all cases: cell-based, mouse
Experiment [1] deals with α7 integrin (LacZ reporter in α7βgal+/− myoblasts). The experiment in a line: Myoblast α7+/LacZ integrin FDG assay (Burkin assay in myoblasts, 96-well). The note with it: 96-well; for Burkin Assay in Myoblasts, value relative to DMSO: SU9516 analogs, N=3-6; for Burkin Assay in Myoblasts, signal relative to DMSO: α7+/LacZ myoblasts.
Experiment [2] deals with α7 integrin (LacZ reporter in α7+/LacZ myotubes). The experiment in a line: Myotube α7 integrin FDG assay (Burkin assay in myotubes, 96-well). Particulars: for Burkin Assay in Myotubes, value relative to DMSO: SU9516 analogs, 96-well, N=3-6.
The test system of experiment [3] is β-galactosidase in CMV-LacZ C2C12 myoblasts. The experiment in a line: CMV-LacZ secondary screen in C2C12 myoblasts (β-Gal stabilizing assay). Particulars: for CMV-LACZ in Myoblasts, value relative to DMSO: SU9516 analogs, C2C12 CMV-LacZ, N=2; for CMV-LACZ in Myoblasts (β-galactosidase activity relative to DMSO): CMV-LacZ C2C12 myoblasts. The essentials:
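C2C12 myoblasts stably carrying a linearized CMV-driven LacZ construct, clone chosen by β-gal level in the myoblast FDG assay. Compounds tested in 96-well dose-response at 0.5, 1, 5, 10, 20 and 40 μM, N=2 replicates per point, to detect β-gal stabilization.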

Experiment [4] deals with β-galactosidase in CMV-LacZ C2C12 myotubes. Briefly: CMV-LacZ secondary screen in C2C12 myotubes (β-Gal stabilizing assay). The note with it: for CMV-LACZ in Myotubes, value relative to DMSO: SU9516 analogs, C2C12 CMV-LacZ, N=2; for CMV-LACZ in Myotubes, signal relative to DMSO: C2C12 CMV-LacZ myotubes, fold relative to DMSO. In a few lines:
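β-Gal level was the read-out, measured in a clonal C2C12 line expressing LacZ from a CMV promoter. Dose-response curves used six concentrations, 0.5 μM up to 40 μM, with duplicate points.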

Consider `Cc1cc(C)c(/C=C2\C(=O)Nc3ccccc32)[nH]1` [NCGC00094381-05], for which the “Burkin Assay in Myoblasts, value relative to DMSO” value in experiment [1] (0.5 uM) stood at 0.9433; in experiment [1] (1 uM) it was 0.9804; in experiment [1] (5 uM), 0.7532; in experiment [1] (10 uM), 0.7145; in experiment [1] (20 uM) it was 0.8879; in experiment [1] (40 uM), 0.7578. The “Burkin Assay in Myotubes, value relative to DMSO” value was 0.9234 in experiment [2] (0.5 uM); 0.931 in experiment [2] (1 uM); 1.047 in experiment [2] (5 uM); 1.319 in experiment [2] (10 uM); 1.05 in experiment [2] (20 uM); 1.138 in experiment [2] (40 uM). For the same molecule, the “CMV-LACZ in Myoblasts, value relative to DMSO” value was found to be 0.8383 in experiment [3] (0.5 uM); 0.9614 in experiment [3] (5 uM); 0.8606 in experiment [3] (10 uM); 0.7147 in experiment [3] (20 uM); 0.8220 in experiment [3] (40 uM). The “CMV-LACZ in Myotubes, value relative to DMSO” value in experiment [4] (0.5 uM) is 1.0045; in experiment [4] (1 uM), 0.8773; in experiment [4] (5 uM), 1.2069; in experiment [4] (10 uM), 2.8305; in experiment [4] (20 uM), 6.8950; in experiment [4] (40 uM), 18.0610.

On to `Cc1ccccc1S(=O)(=O)N1C[C@H]2CON(C)[C@H]2C[C@H]1c1cccc(-c2ccccc2)c1` [MLS002694363-01], for which the “Burkin Assay in Myoblasts, signal relative to DMSO” value in experiment [1] (0.5 uM) was 1.062; in experiment [1] (1 uM), 1.061; in experiment [1] (5 uM) it was 1.045; in experiment [1] (10 uM) it was 1.09; in experiment [1] (20 uM), 0.7581; in experiment [1] (40 uM) it was 0.7066. For the same molecule, the “Burkin Assay in Myotubes, α7 integrin LacZ reporter signal relative to DMSO” value came out at 0.9909 in experiment [2] (0.5 uM); 1.01 in experiment [2] (1 uM); 0.9178 in experiment [2] (5 uM); 0.8787 in experiment [2] (10 uM); 0.6694 in experiment [2] (20 uM); 0.4108 in experiment [2] (40 uM). In addition, the “CMV-LACZ in Myoblasts (β-galactosidase activity relative to DMSO)” value in experiment [3] (0.5 uM) was 1.1110; in experiment [3] (1 uM) it was 1.2840; in experiment [3] (5 uM), 0.7616; in experiment [3] (10 uM), 1.0392; in experiment [3] (20 uM), 1.0123; in experiment [3] (40 uM), 0.5698. Moreover, the “CMV-LACZ in Myotubes, signal relative to DMSO” value in experiment [4] (0.5 uM) is on record as 1.0695; in experiment [4] (1 uM) it was 1.1800; in experiment [4] (5 uM), 1.1420; in experiment [4] (10 uM), 0.9775; in experiment [4] (20 uM) it was 0.9870; in experiment [4] (40 uM), 0.7460.

`CN1C(=O)N(CC(=O)N2CCN(S(=O)(=O)c3ccc(Cl)s3)CC2)C(=O)C12CCCCC2` [MLS002162890-01]: the “Burkin Assay in Myoblasts, signal relative to DMSO” value in experiment [1] (0.5 uM) was 1.107; in experiment [1] (1 uM), 1.034; in experiment [1] (5 uM), 1.1338; in experiment [1] (10 uM), 1.261; in experiment [1] (20 uM), 0.694; in experiment [1] (40 uM) it was 0.4924. Moreover, the “Burkin Assay in Myotubes, α7 integrin LacZ reporter signal relative to DMSO” value in experiment [2] (0.5 uM) is recorded as 1.051; in experiment [2] (1 uM), 1.185; in experiment [2] (5 uM) it was 0.9351; in experiment [2] (10 uM), 1.1501; in experiment [2] (20 uM), 0.7452; in experiment [2] (40 uM), 0.803. Also, the “CMV-LACZ in Myoblasts (β-galactosidase activity relative to DMSO)” value in experiment [3] (0.5 uM) is 0.8392; in experiment [3] (1 uM) it was 0.8713; in experiment [3] (5 uM) it was 0.9701; in experiment [3] (10 uM) it was 0.9939; in experiment [3] (20 uM) it was 0.7603; in experiment [3] (40 uM), 0.9507. Further, the “CMV-LACZ in Myotubes, signal relative to DMSO” value is on record as 1.0682 in experiment [4] (0.5 uM); 1.0191 in experiment [4] (1 uM); 1.1237 in experiment [4] (5 uM); 1.0530 in experiment [4] (10 uM); 1.0140 in experiment [4] (20 uM); 1.0170 in experiment [4] (40 uM).

Consider `O=C(c1ccccc1)N1CCN(S(=O)(=O)c2cccs2)CC1` [MLS001035690-01], for which the “Burkin Assay in Myoblasts, signal relative to DMSO” value in experiment [1] (0.5 uM) turned out to be 1.051; in experiment [1] (1 uM), 1.151; in experiment [1] (5 uM), 1.186; in experiment [1] (10 uM), 0.9872; in experiment [1] (20 uM), 1.055; in experiment [1] (40 uM) it was 1.091. Also, the “Burkin Assay in Myotubes, α7 integrin LacZ reporter signal relative to DMSO” value in experiment [2] (0.5 uM) is 1.111; in experiment [2] (1 uM), 1.072; in experiment [2] (5 uM), 1.073; in experiment [2] (10 uM) it was 0.9358; in experiment [2] (20 uM), 0.972; in experiment [2] (40 uM), 0.9238. Also, the “CMV-LACZ in Myoblasts (β-galactosidase activity relative to DMSO)” value turned out to be 0.9819 in experiment [3] (0.5 uM); 1.0406 in experiment [3] (1 uM); 0.9910 in experiment [3] (5 uM); 1.2020 in experiment [3] (10 uM); 1.3585 in experiment [3] (20 uM); 0.9178 in experiment [3] (40 uM). In addition, the “CMV-LACZ in Myotubes, signal relative to DMSO” value in experiment [4] (0.5 uM) is 1.0474; in experiment [4] (1 uM) it was 0.8644; in experiment [4] (5 uM), 1.1552; in experiment [4] (10 uM), 1.1317; in experiment [4] (20 uM), 1.1976; in experiment [4] (40 uM), 1.0976.

With `CCn1c(=O)c2cc(C(=O)N(C)c3cc(C)ccc3OC)sc2c2ccccc21` [MLS000731285-01], the “Burkin Assay in Myoblasts, signal relative to DMSO” value stood at 1.064 in experiment [1] (0.5 uM); 0.9235 in experiment [1] (1 uM); 0.7727 in experiment [1] (5 uM); 0.7344 in experiment [1] (10 uM); 0.604 in experiment [1] (20 uM); 0.6077 in experiment [1] (40 uM). Further, the “Burkin Assay in Myotubes, α7 integrin LacZ reporter signal relative to DMSO” value is reported as 0.8544 in experiment [2] (0.5 uM); 0.961 in experiment [2] (1 uM); 0.8695 in experiment [2] (5 uM); 0.9409 in experiment [2] (10 uM); 0.69 in experiment [2] (20 uM); 0.1953 in experiment [2] (40 uM). Moreover, the “CMV-LACZ in Myoblasts (β-galactosidase activity relative to DMSO)” value in experiment [3] (0.5 uM) amounted to 1.1747; in experiment [3] (1 uM), 1.0853; in experiment [3] (5 uM) it was 1.0851; in experiment [3] (10 uM), 0.8436; in experiment [3] (20 uM), 0.9582; in experiment [3] (40 uM), 0.6572. Moreover, the “CMV-LACZ in Myotubes, signal relative to DMSO” value in experiment [4] (0.5 uM) was found to be 1.2048; in experiment [4] (1 uM), 1.0562; in experiment [4] (5 uM) it was 1.4794; in experiment [4] (10 uM), 1.3012; in experiment [4] (20 uM) it was 1.0310; in experiment [4] (40 uM), 0.6450.
